Test results reported in the NIST ThermoML archive (doi:10.1016/j.jct.2017.05.042).

Conditions: 101.33 kPa, Liquid, Concentric cylinders viscometry

OCC(O)CO [glycerol]
Conditions	viscosity [mPa·s]
292.89 K	1470
298.1 K	970.6
302.59 K	645.8
312.81 K	305.3
323.88 K	147.4
333.15 K	84.71
343.8 K	49.83
353.67 K	31.8
364.12 K	21.05
374.38 K	14.74
383.29 K	11
394.08 K	8.32
